Data as given in patent US9717722B2, “Methods and agents for treating tyrosinase-positive albinism” (NEW YORK UNIVERSITY, priority 2013, dated 2017).

Assays:
[1] = system: Oca2-null (OCA2) melanocytes; experiment: melanin assay in Oca2-null melanocytes; format: cell-based, mouse; details: for pigmentation (melanin level) in Oca2-null melanocytes: FIG. 1, harvested after 5 days, relative to DMSO vehicle
Procedure: (§1) Oca2-null cells were plated in 60 mm dishes for 24 hours followed by dosing with the indicated compounds. DMSO was used as a vehicle control (to establish the baseline for comparison). Cells were harvested after 5 days. Melanocytes were harvested in extraction buffer (50 mM Tris pH7.5, 2 mM EDTA, 150 mM NaCl) containing 1% Triton X-100 and protease inhibitors (Complete, Roche Indianapolis, Ind.) following two washes with 1× phosphate buffered saline (PBS). The lysate was centrifuged for 30 min at 13,000 rpm in a microfuge. The supernatant was removed and the protein concentration determined using a protein assay kit (BioRad, Richmond, Calif.). Three hundred μl of ethanol:ether (1:1) were added to the pellet, which was then vortexed. After incubation at room temperature for 10 min, the solvent was removed (leaving the melanin behind) and the ethanol:ether wash repeated without vortexing. The melanin was then dissolved in 2 N NaOH, 20% DMSO at 60-70° C. The optical density was determined at 490 nm. The value was normalized to protein concentration in the supernatant and expressed as a ratio of the melanin in the vehicle treated cells.
(§2) Cells were seeded in six-well plates in triplicate. After 24 hours, each cell line was treated with IBMX, forskolin or rapamycin, in addition, Oca2-null melanocytes were treated with bafilomycin. Plates were incubated for 72 hours. Melanocytes were harvested and a melanin assay performed as described above.
Oca2-null cells were plated in 60 mm dishes for 24 hours followed by dosing with the indicated compounds. DMSO was used as a vehicle control. […]
Selected compounds identified in the screen were tested using a traditional melanin assay in order to verify the findings of the screen. […] The supernatant was removed and the protein concentration determined using a protein assay kit (BioRad, Richmond, Calif.). […] The optical density was determined at 490 nm. The value was normalized to protein concentration in the supernatant and expressed as a ratio of the melanin in the untreated cells.

[2] = system: wildtype (WT) melanocytes; details: Ni-Komatsu et al. 2008 Mol Pharmacol; cited from earlier work
[3] = system: Oca3-null (OCA3) melanocytes; experiment: melanin assay in Oca3-null melanocytes; format: cell-based, murine; details: FIG. 2; 72 hours; relative to vehicle
Procedure: as §1
Oca3-null melanocytes were seeded in six-well plates in triplicate. After 24 hours, each cell line was treated with vehicle, chloroquine or rapamycin. Plates were incubated for 72 hours. Melanocytes were harvested and a melanin assay performed as described above.

Oca2-null cells = experiment: 96-well melanin absorbance screen with MTS cell proliferation assay; format: cell-based, mouse; details: library compounds at 5 and/or 1 μM; bafilomycin A1 as positive control
Procedure: The present inventors utilized the chemical genetics approach described herein to identify compounds that can be used to reverse the diminished pigmentation in Oca2-null cells. To this end, they first developed a 96-well assay system for rapid compound screening. Melanocytes were cultured in a 96-well plate in the presence of test compounds. Melanin content was determined by replacing the culture medium with PBS and measuring absorbance at 490 nm.
Following validation of their assay system, the present inventors performed a screen, treating Oca2-null cells with library compounds at concentrations of 5 and/or 1 μM. Each plate included untreated Oca2-null cells as negative controls and cells treated with bafilomycin A1 as positive controls. Compounds identified as potential hits were then re-screened to verify their ability to promote melanin synthesis in cells lacking functional Oca2 protein.

Oca2-null melanocytes = experiment: toxicity to Oca2-null melanocytes; format: cell-based, mouse; details: compared with wildtype melanocytes
wildtype melanocytes = experiment: toxicity to wildtype melanocytes; format: cell-based; details: even at nanomolar concentrations
[4] = system: wildtype (WT) melanocytes; experiment: melanin assay in wildtype melanocytes; format: cell-based; details: FIG. 3; 72 hours
Procedure: as §2
Wildtype cells were plated in 24-well plates for 24 hours followed by dosing with the indicated compounds. DMSO was used as a vehicle control. Cells were harvested after 3 days and a melanin assay was performed as described above.
Selected compounds identified in the screen were tested using a traditional melanin assay in order to verify the findings of the screen. Following 3 (normal melanocytes) or 5 (mutant melanocytes) days of treatment, melanocytes were harvested in extraction buffer (50 mM Tris pH7.5, 2 mM EDTA, 150 mM NaCl) containing 1% Triton X-100 and protease inhibitors (Complete, Roche Indianapolis, Ind.) following two washes with 1× phosphate buffered saline (PBS). The lysate was centrifuged for 30 min at 13,000 rpm in a microfuge. The supernatant was removed and the protein concentration determined using a protein assay kit (BioRad, Richmond, Calif.). […] The optical density was determined at 490 nm. The value was normalized to protein concentration in the supernatant and expressed as a ratio of the melanin in the untreated cells.

melanoma cells = details: reported previously; by upregulating expression of tyrosinase; cited from earlier work

In the case of `CCN(CC)CCCC(C)Nc1ccnc2cc(Cl)ccc12` (racemic) [chloroquine, (RS)—N′-(7-chloroquinolin-4-yl)-N,N-diethyl-pentane-1,4-diamine], the “pigmentation (melanin level) in Oca2-null melanocytes” value [1] is listed as “increase pigmentation”, the “pigmentation in normal melanocytes” value [2] is listed as “decrease pigmentation” and the “pigmentation (melanin level) in Oca3-null melanocytes” value [3] is listed as “increase pigmentation”.

With `CO/C1=C\C(C)=C\[C@@H](C)[C@@H](O)[C@@H](C)C/C(C)=C/C=C/[C@H](OC)[C@@H]([C@@H](C)[C@@H](O)[C@H](C)[C@@]2(O)C[C@@H](O)[C@H](C)[C@@H](C(C)C)O2)OC1=O` [Bafilomycin, bafilomycin A1] the “pigmentation of Oca2-null cells in 96-well screen” value (Oca2-null cells) was “reverses the pigmentation phenotype”, the “melanin content of Oca2-null (OCA2) melanocytes” value ([1]; FIG. 3, 72 hours) was “increased the melanin content” and the “accompanying toxicity in Oca2-null melanocytes” value (Oca2-null melanocytes) was “much less accompanying toxicity”. For the same compound, the “toxicity to wildtype melanocytes” value (wildtype melanocytes) was “highly toxic”.

With `CC(C)Cn1c(=O)n(C)c(=O)c2[nH]cnc21` [IBMX, 3-isobutyl-1-methylxanthine] the “melanin content of wildtype (WT) melanocytes” value [4] was “effective in increasing the melanin content”.

For `CO[C@H]1C[C@@H]2CC[C@@H](C)[C@@](O)(O2)C(=O)C(=O)N2CCCC[C@H]2C(=O)O[C@H]([C@H](C)C[C@@H]2CC[C@@H](O)[C@H](OC)C2)CC(=O)[C@H](C)/C=C(\C)[C@@H](O)[C@@H](OC)C(=O)[C@H](C)C[C@H](C)/C=C/C=C/C=C/1C` [rapamycin, Rapamycin], the “pigmentation (melanin level) in Oca2-null melanocytes” value [1] is listed as “increase pigmentation”, the “pigmentation (melanin level) in Oca3-null melanocytes” value [3] is listed as “increase pigmentation” and the “pigmentation in melanoma cells” value (melanoma cells) is listed as “increase pigmentation”.
